Literature values, collected in paper PMC6270305 (Molecules, 2013).
Where two headings read alike, the source gives them in different places.

[1] = human serum, peptide described in the preliminary communication

Row | Compound | t1/2 (human serum half-life) [1] [h] | t1/2 (human serum half-life) (human, serum) [h]
1 | [L-Msa7]-SRIF [Peptide 2] | 5.2 | 
2 | [L-Msa6,D-Trp8]-SRIF [Peptide 4] | 26 | 
3 | Cc1cc(C)c(C[C@@H]2NC(=O)[C@H](Cc3ccccc3)NC(=O)[C@H](CC(N)=O)NC(=O)[C@H](CCCCN)NC(=O)[C@@H](NC(=O)CNC(=O)[C@H](C)N)CSSC[C@@H](C(=O)O)NC(=O)[C@H](CO)NC(=O)[C@H]([C@@H](C)O)NC(=O)[C@H](Cc3ccccc3)NC(=O)[C@H]([C@@H](C)O)NC(=O)[C@H](CCCCN)NC(=O)[C@@H](Cc3c[nH]c4ccccc34)NC2=O)c(C)c1 [Peptide 5, [L-Msa7,D-Trp8]-SRIF] |  | 25
4 | [L-Msa11,D-Trp8]-SRIF [Peptide 6] | 41 | 
